From article PMC8566257 (Plant Physiology, 2021) come the findings set out here.

Assay in all cases: pull-down of COI1-flag on MBP-JAZ, immunoblot
Format in all cases: binding
Details in all cases: 0.5 μM COR; inducer of complex (agonist)
For orientation: A western blot detects proteins with antibodies after separation by electrophoresis.

For test [1], the target named is T1, AtCOI1-flag/AtJAZ3-MBP with ASK1 (Arabidopsis thaliana, UniProt O04197+Q9LVI4).
T1 sequence (O04197 1-592): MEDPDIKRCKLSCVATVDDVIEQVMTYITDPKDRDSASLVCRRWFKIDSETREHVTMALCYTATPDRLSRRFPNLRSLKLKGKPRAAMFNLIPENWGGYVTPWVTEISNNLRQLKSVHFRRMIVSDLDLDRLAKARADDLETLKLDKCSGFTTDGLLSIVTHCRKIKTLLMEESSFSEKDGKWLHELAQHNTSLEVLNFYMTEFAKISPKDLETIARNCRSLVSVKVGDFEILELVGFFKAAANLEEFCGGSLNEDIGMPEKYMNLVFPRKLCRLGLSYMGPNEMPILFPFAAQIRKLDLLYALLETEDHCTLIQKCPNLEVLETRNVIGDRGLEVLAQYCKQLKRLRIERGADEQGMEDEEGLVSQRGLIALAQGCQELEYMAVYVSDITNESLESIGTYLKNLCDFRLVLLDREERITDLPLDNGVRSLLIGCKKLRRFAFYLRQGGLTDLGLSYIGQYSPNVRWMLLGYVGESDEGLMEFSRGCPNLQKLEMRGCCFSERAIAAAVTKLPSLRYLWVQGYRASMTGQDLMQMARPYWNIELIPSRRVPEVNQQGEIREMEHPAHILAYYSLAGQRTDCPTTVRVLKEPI
T1 sequence (Q9LVI4 1-352): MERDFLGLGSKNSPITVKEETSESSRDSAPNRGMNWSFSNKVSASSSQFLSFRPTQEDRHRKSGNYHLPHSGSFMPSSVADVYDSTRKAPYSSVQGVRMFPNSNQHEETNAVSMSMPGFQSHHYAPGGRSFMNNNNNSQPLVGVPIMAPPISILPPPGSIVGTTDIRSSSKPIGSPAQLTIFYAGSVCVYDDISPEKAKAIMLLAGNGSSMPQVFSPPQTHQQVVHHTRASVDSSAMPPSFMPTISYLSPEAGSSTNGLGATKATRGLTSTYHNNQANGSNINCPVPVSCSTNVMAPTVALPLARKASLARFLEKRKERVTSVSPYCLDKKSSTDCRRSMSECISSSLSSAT
T1 sequence (Q39255 1-160 partner): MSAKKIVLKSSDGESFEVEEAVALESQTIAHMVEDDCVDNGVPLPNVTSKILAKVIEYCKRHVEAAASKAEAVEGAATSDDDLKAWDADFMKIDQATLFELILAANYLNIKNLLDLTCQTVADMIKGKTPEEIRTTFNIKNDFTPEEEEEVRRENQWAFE

Test [2] concerns the target T2, AtCOI1-flag/AtJAZ9-MBP with ASK1 (Arabidopsis thaliana, UniProt O04197+Q8W4J8).
T2 sequence (O04197 1-592): T1 sequence (O04197 1-592)
T2 sequence (Q8W4J8 1-267): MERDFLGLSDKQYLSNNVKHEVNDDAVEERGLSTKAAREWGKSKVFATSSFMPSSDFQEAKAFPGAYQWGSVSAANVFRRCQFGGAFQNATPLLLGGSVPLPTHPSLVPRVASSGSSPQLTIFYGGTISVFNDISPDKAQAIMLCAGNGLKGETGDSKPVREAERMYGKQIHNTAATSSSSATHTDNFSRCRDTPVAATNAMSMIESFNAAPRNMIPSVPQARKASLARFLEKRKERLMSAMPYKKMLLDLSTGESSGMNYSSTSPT
T2 sequence (Q39255 1-160 partner): T1 sequence (Q39255 1-160 partner)

In test [3] the target is T3, AtCOI1-flag/AtJAZ1-MBP with ASK1 (Arabidopsis thaliana, UniProt O04197+Q9LMA8).
T3 sequence (O04197 1-592): T1 sequence (O04197 1-592)
T3 sequence (Q9LMA8 1-253): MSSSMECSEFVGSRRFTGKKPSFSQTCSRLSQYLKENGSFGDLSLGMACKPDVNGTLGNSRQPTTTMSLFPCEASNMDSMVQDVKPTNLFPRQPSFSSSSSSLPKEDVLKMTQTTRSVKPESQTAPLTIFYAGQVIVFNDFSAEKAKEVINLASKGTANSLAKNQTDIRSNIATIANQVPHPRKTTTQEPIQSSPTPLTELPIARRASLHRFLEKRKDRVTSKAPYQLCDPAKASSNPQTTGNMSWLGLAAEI
T3 sequence (Q39255 1-160 partner): T1 sequence (Q39255 1-160 partner)

Test [4] deals with T4, AtCOI1-flag/AtJAZ2-MBP with ASK1 (Arabidopsis thaliana, UniProt O04197+Q9S7M2).
T4 sequence (O04197 1-592): T1 sequence (O04197 1-592)
T4 sequence (Q9S7M2 1-249): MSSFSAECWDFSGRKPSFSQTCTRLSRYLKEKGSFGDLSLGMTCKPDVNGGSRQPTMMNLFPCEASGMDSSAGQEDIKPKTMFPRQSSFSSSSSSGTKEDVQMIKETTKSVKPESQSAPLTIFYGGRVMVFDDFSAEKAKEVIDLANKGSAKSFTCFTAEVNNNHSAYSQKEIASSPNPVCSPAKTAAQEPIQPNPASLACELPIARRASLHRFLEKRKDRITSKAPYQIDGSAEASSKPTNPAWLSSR
T4 sequence (Q39255 1-160 partner): T1 sequence (Q39255 1-160 partner)

On to `CC[C@H]1C=C(C(=O)N[C@@]2(C(=O)O)C[C@@H]2CC)[C@H]2CCC(=O)[C@H]2C1` [COR], for which the “pull-down of COI1-flag on MBP-JAZ, immunoblot” value was “COR promotes the interaction between the purified COI1 and several recombinant JAZ-MBP proteins” in test [1]; “COR promotes the interaction between the purified COI1 and several recombinant JAZ-MBP proteins” in test [2]; “COR promotes the interaction between the purified COI1 and several recombinant JAZ-MBP proteins” in test [3]; “COR promotes the interaction between the purified COI1 and several recombinant JAZ-MBP proteins” in test [4].
